Where two headings read alike, the source gives them in different places.
Molecular target: T1, human GR (Homo sapiens, UniProt P04150)
T1 sequence (P04150 1-777): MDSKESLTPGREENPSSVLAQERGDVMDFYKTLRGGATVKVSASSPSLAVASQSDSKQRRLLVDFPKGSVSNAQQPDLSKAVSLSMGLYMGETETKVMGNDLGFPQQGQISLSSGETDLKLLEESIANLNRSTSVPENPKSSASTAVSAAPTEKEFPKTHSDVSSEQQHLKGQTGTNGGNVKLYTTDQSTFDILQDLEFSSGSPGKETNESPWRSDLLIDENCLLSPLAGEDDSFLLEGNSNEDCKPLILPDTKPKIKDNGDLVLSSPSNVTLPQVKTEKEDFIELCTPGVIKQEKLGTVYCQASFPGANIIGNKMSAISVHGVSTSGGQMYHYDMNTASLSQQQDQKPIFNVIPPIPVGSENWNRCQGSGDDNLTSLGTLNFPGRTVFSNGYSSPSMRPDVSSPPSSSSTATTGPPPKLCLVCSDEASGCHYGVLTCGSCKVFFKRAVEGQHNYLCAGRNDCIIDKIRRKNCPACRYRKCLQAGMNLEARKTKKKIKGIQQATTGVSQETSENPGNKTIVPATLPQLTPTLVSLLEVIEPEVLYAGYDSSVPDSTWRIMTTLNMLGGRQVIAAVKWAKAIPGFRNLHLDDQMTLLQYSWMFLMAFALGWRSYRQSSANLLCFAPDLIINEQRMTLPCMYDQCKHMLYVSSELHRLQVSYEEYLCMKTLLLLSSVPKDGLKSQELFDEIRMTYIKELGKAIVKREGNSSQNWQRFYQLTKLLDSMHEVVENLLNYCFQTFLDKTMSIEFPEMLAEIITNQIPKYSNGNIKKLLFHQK
Test: Transrepression Assay (GITAR), TNFα-β-lactamase reporter gene in U937 cells
Type: cell-based
Set-up: U937 cells contain an endogenous glucocorticoid receptor (GR); endogenous in cells; host or cells: U937 cells stably transfected with the TNF-α promoter/β-lactamase reporter only
Method in brief: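 Reporter readout used CCF2-AM loading for 70–90 min at room temperature after overnight (~18 h, 37 °C) PMA (5 ng/ml final) and LPS (100 ng/ml final) stimulation of compound-treated (30–45 min) TNFα-β-lactamase U937 cells expressing native GR. Activity was normalised to 100 nM dexamethasone repression.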

[1] = U-937, 100 nM dexamethasone = 100% activity, read-out: maximal activity in the transrepression assay
[2] = U-937, read-out: maximal activity in the transrepression assay

| Emax [1] [%] | SMILES | Emax [2] [%] |
| --- | --- | --- |
| 5 to 100 | CCNC(=O)Nc1c(F)cccc1CC[C@]1(O)CCC2=Cc3c(cnn3-c3ccc(F)cc3)C[C@@]21C [Example 132, N-ethyl-N′-(2-fluoro-6-{2-[(4αS,5R)-1-(4-fluorophenyl)-5-hydroxy-4α-methyl-1,4,4α,5,6,7-hexahydrocyclopenta[f]indazol-5-yl]ethyl}phenyl)urea] |  |
| 5 to 100 | CC(C)NC(=O)Nc1ccc(F)cc1CC[C@]1(O)CCC2=Cc3c(cnn3-c3ccc(F)cc3)C[C@@]21C [Example 133, N-(4-fluoro-2-{2-[(4αS,5R)-1-(4-fluorophenyl)-5-hydroxy-4α-methyl-1,4,4α,5,6,7-hexahydrocyclopenta[f]indazol-5-yl]ethyl}phenyl)-N′-isopropylurea] |  |
| 5 to 100 | COC(=O)Oc1ccccc1CC[C@]1(O)CCC2=Cc3c(cnn3-c3ccc(F)cc3)C[C@@]21C [Example 135, 2-{2-[(4αS,5R)-1-(4-fluorophenyl)-5-hydroxy-4α-methyl-1,4,4α,5,6,7-hexahydrocyclopenta[f]indazol-5-yl]ethyl}phenyl methyl carbonate] |  |
|  | CC(C)NC(=O)Oc1ccccc1CC[C@]1(O)CCC2=Cc3c(cnn3-c3ccc(F)cc3)C[C@@]21C [Example 136, 2-{2-[(4αS,5R)-1-(4-fluorophenyl)-5-hydroxy-4α-methyl-1,4,4α,5,6,7-hexahydrocyclopenta[f]indazol-5-yl]ethyl}phenyl isopropylcarbamate] | 5 to 100 |
| 5 to 100 | CCNS(=O)(=O)c1ccccc1CC[C@]1(O)CCC2=Cc3c(cnn3-c3ccc(F)cc3)C[C@@]21C [Example 137, N-ethyl-2-{2-[(4αS,5R)-1-(4-fluorophenyl)-5-hydroxy-4α-methyl-1,4,4α,5,6,7-hexahydrocyclopenta[f]indazol-5-yl]ethyl}benzenesulfonamide] |  |
| 5 to 100 | CNS(=O)(=O)c1ccccc1CC[C@]1(O)CCC2=Cc3c(cnn3-c3ccc(F)cc3)C[C@@]21C [Example 139, 2-{2-[(4αS,5R)-1-(4-fluorophenyl)-5-hydroxy-4α-methyl-1,4,4α,5,6,7-hexahydrocyclopenta[f]indazol-5-yl]ethyl}-N-methylbenzenesulfonamide] |  |
| 5 to 100 | C[C@]12Cc3cnn(-c4cccc(F)c4)c3C=C1CC[C@@]2(O)CCc1ccccc1S(N)(=O)=O [Example 140, 2-{2-[(4αS,5R)-1-(3-fluorophenyl)-5-hydroxy-4α-methyl-1,4,4α,5,6,7-hexahydrocyclopenta[f]indazol-5-yl]ethyl}benzenesulfonamide] |  |
| 5 to 100 | C[C@]12Cc3cnn(-c4ccccc4)c3C=C1CC[C@@]2(O)CCc1ccccc1S(N)(=O)=O [Example 141, 2-{2-[(4αS,5R)-5-hydroxy-4α-methyl-1-phenyl-1,4,4α,5,6,7-hexahydrocyclopenta[f]indazol-5-yl]ethyl}benzenesulfonamide] |  |
| 5 to 100 | C[C@]12Cc3cnn(-c4ccc(F)c(F)c4)c3C=C1CC[C@@]2(O)CCc1ccccc1S(N)(=O)=O [Example 142, 2-{2-[(4αS,5R)-1-(3,4-difluorophenyl)-5-hydroxy-4α-methyl-1,4,4α,5,6,7-hexahydrocyclopenta[f]indazol-5-yl]ethyl}benzenesulfonamide] |  |
| 5 to 100 | C[C@]12Cc3cnn(-c4ccc(F)cc4)c3C=C1CC[C@@]2(O)CCc1cccc(F)c1C#N [Example 145, 2-fluoro-6-{2-[(4αS,5R)-1-(4-fluorophenyl)-5-hydroxy-4α-methyl-1,4,4α,5,6,7-hexahydrocyclopenta[f]indazol-5-yl]ethyl}benzonitrile] |  |
| 5 to 100 | C[C@]12Cc3cnn(-c4ccc(F)cc4)c3C=C1CC[C@@]2(O)CCc1cc(F)ccc1C#N [Example 146, 4-fluoro-2-{2-[(4αS,5R)-1-(4-fluorophenyl)-5-hydroxy-4α-methyl-1,4,4α,5,6,7-hexahydrocyclopenta[f]indazol-5-yl]ethyl}benzonitrile] |  |
| 5 to 100 | C[C@]12Cc3cnn(-c4ccc(F)cc4)c3C=C1CC[C@@]2(O)CCc1ccccc1-c1ccc[nH]1 [Example 147, (4αS,5R)-1-(4-fluorophenyl)-4α-methyl-5-{2-[2-(1H-pyrrol-2-yl)phenyl]ethyl}-1,4,4α,5,6,7-hexahydrocyclopenta[f]indazol-5-ol] |  |
|  | C[C@]12Cc3cnn(-c4ccc(F)cc4)c3C=C1CC[C@@]2(O)CCc1ccccc1CO [Example 149, (4αS,5R)-1-(4-fluorophenyl)-5-{2-[2-(hydroxymethyl)phenyl]ethyl}-4α-methyl-1,4,4α,5,6,7-hexahydrocyclopenta[f]indazol-5-ol] | 5 to 100 |
| 5 to 100 | C[C@]12Cc3cnn(-c4ccc(F)cc4)c3C=C1CC[C@@]2(O)CCc1cccc(F)c1CN [Example 153, (4αS,5R)-5-{2-[2-(aminomethyl)-3-fluorophenyl]ethyl}-1-(4-fluorophenyl)-4α-methyl-1,4,4α,5,6,7-hexahydrocyclopenta[f]indazol-5-ol] |  |
| 5 to 100 | C[C@]12Cc3cnn(-c4ccc(F)cc4)c3C=C1CC[C@@]2(O)CCc1cccc(F)c1C=O [Example 154, 2-fluoro-6-{2-[(4αS,5R)-1-(4-fluorophenyl)-5-hydroxy-4α-methyl-1,4,4α,5,6,7-hexahydrocyclopenta[f]indazol-5-yl]ethyl}benzaldehyde] |  |
| 5 to 100 | C[C@]12Cc3cnn(-c4ccc(F)cc4)c3C=C1CC[C@@]2(O)CCc1cccc(F)c1C(=O)N1CC(=O)C1 [Example 155, 1-(2-fluoro-6-{2-[(4αS,5R)-1-(4-fluorophenyl)-5-hydroxy-4α-methyl-1,4,4α,5,6,7-hexahydrocyclopenta[f]indazol-5-yl]ethyl}benzoyl)azetidin-3-one] |  |
| 5 to 100 | C[C@]12Cc3cnn(-c4ccc(F)cc4)c3C=C1CC[C@@]2(O)CCc1ccccc1-c1cscn1 [Example 158, (4αS,5R)-1-(4-fluorophenyl)-4α-methyl-5-{2-[2-[1,3-thiazol-4-yl)phenyl]ethyl}-1,4,4α,5,6,7-hexahydrocyclopenta[f]indazol-5-ol] |  |
| 5 to 100 | C[C@]12Cc3cnn(-c4ccc(F)cc4)c3C=C1CC[C@@]2(O)CCc1cc(C(F)(F)F)ccc1C#N [Example 161, 2-{2-[(4αS,5R)-1-(4-fluorophenyl)-5-hydroxy-4α-methyl-1,4,4α,5,6,7-hexahydrocyclopenta[f]indazol-5-yl]ethyl}-4-(trifluoromethyl)benzonitrile] |  |
| 5 to 100 | Cc1ccc(C#N)c(CC[C@]2(O)CCC3=Cc4c(cnn4-c4ccc(F)cc4)C[C@@]32C)c1 [Example 162, 2-{2-[(4αS,5R)-1-(4-fluorophenyl)-5-hydroxy-4α-methyl-1,4,4α,5,6,7-hexahydrocyclopenta[f]indazol-5-yl]ethyl}-4-methylbenzonitrile] |  |
| 5 to 100 | C[C@]12Cc3cnn(-c4ccc(F)cc4)c3C=C1CC[C@@]2(O)CCc1ccc(C(F)(F)F)cc1C#N [Example 164, 2-{2-[(4αS,5R)-1-(4-fluorophenyl)-5-hydroxy-4α-methyl-1,4,4α,5,6,7-hexahydrocyclopenta[f]indazol-5-yl]ethyl}-5-(trifluoromethyl)benzonitrile] |  |
| 5 to 100 | CO[C@@]1(CCc2ccccc2C(N)=O)CCC2=Cc3c(cnn3-c3ccc(F)cc3)C[C@@]21C [Example 165, 2-{2-[(4αS,5R)-1-(4-fluorophenyl)-5-methoxy-4α-methyl-1,4,4α,5,6,7-hexahydrocyclopenta[f]indazol-5-yl]ethyl}benzamide] |  |
| 5 to 100 | C[C@]12Cc3cnn(-c4ccc(F)cc4)c3C=C1CC[C@@]2(O)CCc1cc(F)ccc1C(N)=O [Example 166, 4-fluoro-2-{2-[(4αS,5R)-1-(4-fluorophenyl)-5-hydroxy-4α-methyl-1,4,4α,5,6,7-hexahydrocyclopenta[f]indazol-5-yl]ethyl}benzamide] |  |
| 5 to 100 | C[C@]12Cc3cnn(-c4ccccc4)c3C=C1CC[C@@]2(O)CCc1cccc(F)c1C(N)=O [Example 167, 2-fluoro-6-{2-[(4αS,5R)-5-hydroxy-4α-methyl-1-phenyl-1,4,4α,5,6,7-hexahydrocyclopenta[f]indazol-5-yl]ethyl}benzamide] |  |
| 5 to 100 | C[C@]12Cc3cnn(-c4ccc(F)cc4)c3C=C1CC[C@@]2(O)CCc1cccc(Cl)c1C(N)=O [Example 169, 2-chloro-6-{2-[(4αS,5R)-1-(4-fluorophenyl)-5-hydroxy-4α-methyl-1,4,4α,5,6,7-hexahydrocyclopenta[f]indazol-5-yl]ethyl}benzamide] |  |
| 5 to 100 | C[C@]12Cc3cnn(-c4ccc(F)cc4)c3C=C1CC[C@@]2(O)CCc1cc(Cl)ccc1C(N)=O [Example 171, 4-chloro-2-{2-[(4αS,5R)-1-(4-fluorophenyl)-5-hydroxy-4α-methyl-1,4,4α,5,6,7-hexahydrocyclopenta[f]indazol-5-yl]ethyl}benzamide] |  |
